The values that follow come from paper PMC6370995, “Phase I study of PF‐04895162, a Kv7 channel opener, reveals unexpected hepatotoxicity in healthy subjects, but not rats or monkeys: clinical evidence of disrupted bile acid homeostasis” (Pharmacology Research & Perspectives, 2019).

In series [1] the test system is palmitate fatty acid oxidation. Briefly: mitochondrial fatty acid oxidation inhibition using palmitate. It counts as biochemical. The note with it: N = 2; read-out: IC50 for impaired palmitate fatty acid oxidation.
Excerpt: […]

The subject of a further series is cynomolgus monkeys. Briefly: Escalating Dose Range-Finding and Maximum Tolerated Dose Study in Cynomolgus Monkeys. It counts as in vivo, cynomolgus monkey.

SMILES strings stand for the structures.

`O=C(Cc1ccc(F)cc1)Nn1c(C2CC2)nc2cc(F)ccc2c1=O` [PF‐04895162, N‐(2‐cyclopropyl‐7‐fluoro‐4‐oxoquinazolin‐3(4H)‐yl)‐2‐(4‐fluorophenyl)ethanamide]: in series [1], the IC50 is ~70 µM. For the same molecule, the “gross findings at necropsy, organ weights, liver histopathology, Dosing Phase 1” value in the series on cynomolgus monkeys (25, 50, 100 and 200 mg/kg) is “no other apparent effects of treatment”. In addition, the “clinical signs, Dosing Phase 2” value in the series on cynomolgus monkeys (morning following dosing at 200 mg/kg/day, all 4 treated monkeys) is “hyperactivity, ataxia, tremors, and dilated pupils”. Further, the “clinical observation, Dosing Phase 1” value in the series with cynomolgus monkeys (single escalating NG doses, most prevalently at 100 and 200 mg/kg) was “Post-dosing vomitus”.

The term IC50 denotes the concentration at which inhibition is half-maximal.
